According to PMC11211886 (Frontiers in Pharmacology, 2024):
Where “and” joins values, the source holds several entries; their conditions need not be identical. Equal values may be shown once. Read-outs that look alike come from different tables or passages of the source.

Key:
CYP2C9 = target: T1, CYP2C9 (Homo sapiens, UniProt P11712); assay: Time-dependent CYP inhibition in HLM, CYP2C9; type: in vitro ADME; conditions: 10 μM, 30 min pre-incubation with NADPH
T1 construct: tissue Life Technologies (Durham, NC, USA); host or cells: human liver microsomes
T1 sequence (P11712 whole entry): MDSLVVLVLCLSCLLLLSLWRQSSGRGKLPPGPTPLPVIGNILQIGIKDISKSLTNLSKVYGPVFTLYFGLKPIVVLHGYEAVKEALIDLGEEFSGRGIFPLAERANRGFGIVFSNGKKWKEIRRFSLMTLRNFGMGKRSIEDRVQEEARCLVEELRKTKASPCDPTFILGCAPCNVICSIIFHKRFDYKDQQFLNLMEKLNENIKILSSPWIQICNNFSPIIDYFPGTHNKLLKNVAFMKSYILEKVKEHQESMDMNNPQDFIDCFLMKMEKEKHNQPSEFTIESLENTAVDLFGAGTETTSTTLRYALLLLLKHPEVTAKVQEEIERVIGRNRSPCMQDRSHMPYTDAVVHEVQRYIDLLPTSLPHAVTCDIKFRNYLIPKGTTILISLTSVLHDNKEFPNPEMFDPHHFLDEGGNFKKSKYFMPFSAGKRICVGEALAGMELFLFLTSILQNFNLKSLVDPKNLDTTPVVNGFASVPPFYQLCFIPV
Description: (§1) The procedure of time-dependent CYP inhibition was similar to that used for CYP reversible inhibition, as mentioned above, except that a pre-incubation step was added. […] Another appropriate volume of the NADPH-regenerating system and probe substrate were added to initiate the CYP isoform enzyme activity test step. For this step, the incubation period was 10 min, except for CYP2B6, CYP2C8, and CYP3A4/5 (probe substrate: midazolam), which was 3 min to make sure the reaction was under initial linear rates. After incubation for the designated time periods at 37°C, the ice-cold acetonitrile containing IS was added to quench the reaction. […] (Ainactivator/[…] represents the enzyme activity remaining due to the inhibition by the diluted inactivator in the enzyme activity test step, and (Ainactivator/[…] represents the remaining enzyme activity due to pre-incubation loss plus inhibition by the diluted inactivator in the enzyme activity test step.

plasma proteins = assay: Plasma protein binding (RED), dog plasma; type: in vitro ADME
Description: The plate containing plasma and buffer was equilibrated for 6 h in a 37°C water shaking bath. After incubation, aliquots of buffer and plasma (20 µL) on both sides were collected and precipitated using organic solvents. […] The post-dialysis recovery of amdizalisib was also measured.

[1] = Metabolic stability in mouse liver microsomes; type: in vitro ADME
Description: FMO was deactivated by heating liver microsomes at 45°C for 5 min. […] (1) metabolic clearance is the major mechanism of clearance; (2) liver is the major organ of clearance; and (3) oxidation is the major metabolic pathway. CLint,in vitro=k / Cmicrosomes , Scaled CLint,in vivo=CLint,in vitro×microsomes yield×liver weight, where Cmicrosomes means the experimental protein concentration (0.5 mg/mL) in the incubation system.

CYP2E1 = target: T2, CYP2E1 (Homo sapiens, UniProt P05181); assay: Reversible CYP inhibition in HLM, CYP2E1 (chlorzoxazone); type: in vitro ADME; conditions: for enzyme activity remaining: CYP2E1, HLM
T2 construct: tissue Life Technologies (Durham, NC, USA); host or cells: human liver microsomes
T2 sequence (P05181 whole entry): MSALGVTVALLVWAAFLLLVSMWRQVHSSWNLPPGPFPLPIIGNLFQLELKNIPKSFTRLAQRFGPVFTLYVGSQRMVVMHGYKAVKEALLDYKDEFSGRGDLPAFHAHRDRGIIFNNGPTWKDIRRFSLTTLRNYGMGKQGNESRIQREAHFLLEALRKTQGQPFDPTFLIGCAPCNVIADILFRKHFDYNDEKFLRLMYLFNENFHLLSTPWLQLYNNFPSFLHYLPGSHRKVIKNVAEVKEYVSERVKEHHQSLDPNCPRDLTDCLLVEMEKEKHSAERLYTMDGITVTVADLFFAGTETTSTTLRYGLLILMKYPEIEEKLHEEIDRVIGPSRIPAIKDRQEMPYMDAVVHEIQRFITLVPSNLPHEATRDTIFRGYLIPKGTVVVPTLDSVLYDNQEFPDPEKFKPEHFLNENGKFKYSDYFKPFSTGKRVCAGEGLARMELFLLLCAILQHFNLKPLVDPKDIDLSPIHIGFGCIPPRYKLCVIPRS
Description: The markers used to determine the activities of CYP isoforms were phenacetin O-deethylation for CYP1A2 (probe substrate: 50 µM phenacetin), bupropion hydroxylation for CYP2B6 (probe substrate: 70 µM bupropion), paclitaxel 6α-hydroxylation for CYP2C8 (probe substrate: 10 µM paclitaxel), diclofenac 4′-hydroxylation for CYP2C9 (probe substrate: 5 µM diclofenac), S-(+)-mephenytoin 4′-hydroxylation for CYP2C19 (probe substrate: 20 µM S-(+)-mephenytoin), dextromethorphan O-demethylation for CYP2D6 (probe substrate: 6 µM dextromethorphan), chlorzoxazone 6′-hydroxylation for CYP2E1 (probe substrate: 70 µM chlorzoxazone), and testosterone 6β-hydroxylation and midazolam 1′-hydroxylation for CYP3A4/5 (probe substrate: 45 µM testosterone and 5 µM midazolam). […] Alpha-naphthoflavone (0.04 µM), 2-phenyl-2-(1-piperidinyl)propane (5 µM), quercetin (1 µM), sulfaphenazole (0.5 µM), ticlopidine (4 µM), quinidine (0.2 µM), diethyldithiocarbamate (20 µM), and ketoconazole (0.05 µM) were used as positive inhibitors of CYP1A2, 2B6, 2C8, 2C9, 2C19, 2D6, 2E1, and 3A4, respectively. The vehicle control was prepared in the same composition as inhibitor solutions but free of inhibitors. The concentrations of probe substrates were close to Km values that were determined in-house and within the range recommended by the FDA ([Huang et al., 2007]). Reaction mixtures were incubated at 37°C for 5, 20, or 30 min, depending on the probe substrates of CYP isoforms. The reactions were terminated by adding cold acetonitrile containing IS, and the terminated incubation mixtures were centrifuged at 3,000 g for 10 min before LC-MS/MS analysis.

CYP2C8 = target: T3, CYP2C8 (Homo sapiens, UniProt P10632); assay: Time-dependent CYP inhibition in HLM, CYP2C8; type: in vitro ADME; conditions: 10 μM, 30 min pre-incubation with NADPH
T3 construct: tissue Life Technologies (Durham, NC, USA); host or cells: human liver microsomes
T3 sequence (P10632 1-490): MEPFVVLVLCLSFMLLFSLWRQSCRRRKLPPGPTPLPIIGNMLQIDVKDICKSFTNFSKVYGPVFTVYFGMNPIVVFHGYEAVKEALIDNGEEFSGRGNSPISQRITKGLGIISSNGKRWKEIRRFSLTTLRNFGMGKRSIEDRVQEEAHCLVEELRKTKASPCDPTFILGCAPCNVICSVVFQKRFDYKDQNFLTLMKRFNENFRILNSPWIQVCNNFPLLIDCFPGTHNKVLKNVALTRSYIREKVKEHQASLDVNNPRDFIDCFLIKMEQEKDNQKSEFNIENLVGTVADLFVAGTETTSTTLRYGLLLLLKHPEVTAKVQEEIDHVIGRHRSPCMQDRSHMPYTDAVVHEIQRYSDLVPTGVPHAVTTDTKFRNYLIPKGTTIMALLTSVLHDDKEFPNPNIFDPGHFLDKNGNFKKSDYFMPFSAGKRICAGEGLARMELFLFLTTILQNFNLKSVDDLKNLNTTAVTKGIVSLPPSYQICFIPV
Description: as §1

[2] = Whole blood-to-plasma partition, dog blood; type: in vitro ADME
Description: The whole blood and plasma samples were incubated at 37°C for up to 1 h. Serial samples (150 µL) were collected at different time points (0, 10, and 60 min) and transferred into new tubes. The whole blood samples were then centrifuged at 1700 g for 15 min to harvest plasma.

CYP2C19 = target: T4, CYP2C19 (Homo sapiens, UniProt P33261); assay: Time-dependent CYP inhibition in HLM, CYP2C19; type: in vitro ADME; conditions: 10 μM, 30 min pre-incubation with NADPH
T4 construct: tissue Life Technologies (Durham, NC, USA); host or cells: human liver microsomes
T4 sequence (P33261 whole entry): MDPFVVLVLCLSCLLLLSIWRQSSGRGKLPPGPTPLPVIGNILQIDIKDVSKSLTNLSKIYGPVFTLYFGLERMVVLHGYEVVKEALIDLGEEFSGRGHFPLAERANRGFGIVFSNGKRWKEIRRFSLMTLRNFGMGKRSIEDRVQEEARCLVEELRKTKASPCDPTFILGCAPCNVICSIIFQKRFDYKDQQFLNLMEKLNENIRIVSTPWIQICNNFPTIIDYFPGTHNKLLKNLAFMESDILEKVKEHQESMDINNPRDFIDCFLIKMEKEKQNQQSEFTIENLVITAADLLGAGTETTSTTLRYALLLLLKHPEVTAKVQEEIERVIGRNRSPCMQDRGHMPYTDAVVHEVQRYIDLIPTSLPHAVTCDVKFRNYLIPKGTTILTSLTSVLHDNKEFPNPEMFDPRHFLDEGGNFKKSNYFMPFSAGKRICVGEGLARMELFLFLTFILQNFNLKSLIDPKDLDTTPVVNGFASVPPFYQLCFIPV
Description: as §1

[3] = Cytotoxicity on human hepatocytes in induction assay; type: cell-based; conditions: 20 μM, CYP2C induction evaluation (data not shown)
Description: […] […] […] Enzyme activity for each CYP isoform was reported as a fold change over vehicle control and the percent of positive control (detailed calculation in Supplementary 1.1). Hepatocytes were harvested with a lysis buffer from RNeasy 96 Kit (Qiagen Inc., Germantown, MD, USA) to isolate RNA, which was analyzed by real-time quantitative polymerase chain reaction (RT-PCR). […] Emax (the maximal observed induction) and EC50 (the concentration that supports half-maximal induction) were estimated by non-linear regression of fold increase in CYP mRNA expression versus concentration plots.

## C[C@H](Nc1ncnc(N)c1C#N)c1cc2ncc(Cl)n2nc1-c1ccccc1 [Amdizalisib]
CYP2C9
  activity loss of CYP2C9: 14.6%
Plasma proteins; 0.1 µM
  Binding fraction to plasma proteins, Dog: 87.7 ± 5.15%
Plasma proteins; 1 µM
  Binding fraction to plasma proteins, Dog: 89.1 ± 0.83%
Plasma proteins; 20 µM
  Binding fraction to plasma proteins, Dog: 88.8 ± 0.69%
[1]; female, mouse, microsomes, pH 7.4, Predicted CL int, iv vivo
  CLint scaled at 1 µM: 52.8 mL/min/kg
[1]; female, mouse, microsomes, pH 7.4, in vitro t1/2
  half-life at 1 µM: 1.7 h
[1]; male, mouse, microsomes, pH 7.4, Predicted CL int, iv vivo
  CLint scaled at 1 µM: 50.4 mL/min/kg
[1]; male, mouse, microsomes, pH 7.4, in vitro t1/2
  half-life at 1 µM: 1.8 h
[1]; pH 7.4, female mouse liver microsomes, FMO deactivation, read-out: in vitro t1/2
  half-life at 1 µM: 1.72 h
[1]; pH 7.4, female mouse liver microsomes, normal, read-out: Predicted CL int, iv vivo
  CLint scaled at 1 µM: 53.6 mL/min/kg
CYP2E1; 0.08 μM
  enzyme activity remaining: 99.7% and 97.6%
CYP2E1; 0.4 μM
  enzyme activity remaining: 99.0% and 96.9%
CYP2E1; 2 μM
  enzyme activity remaining: 101% and 95.5%
CYP2E1; 10 μM
  enzyme activity remaining: 105% and 97.6%
CYP2E1; 50 μM
  enzyme activity remaining: 118% and 113%
CYP2E1; HLM, reversible, without pre-incubation
  IC50: > 50 µM
CYP2C8
  activity loss of CYP2C8: less than 10%
[2]; dog blood, 1 μM, 0 min
  RB: 1.01
[2]; dog, 0 min, 1 µM
  fuB: 10.9%
[2]; dog, 1 µM
  fup: 0.109
[2]; dog, 10 min, 1 µM
  RB: 0.874
  fuB: 12.5%
[2]; dog, 60 min, 1 µM
  RB: 0.968
  fuB: 11.3%
CYP2C19
  activity loss of CYP2C19: less than 10%
[3]
  cytotoxic effect on cell viability: exhibited cytotoxicity against human hepatocytes in one donor
